PubChem BioAssay (NCI)
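These data come from cells grown in 96-well plates and exposed to compound for 48 hours at five concentrations. At the GI50, growth is halved. TGI marks complete inhibition of growth.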

Tests used:
Assay in all cases: NCI-60 cell line screen, 48 h
[1] = test system: SF-539 CNS
[2] = test system: MCF7 breast
[3] = test system: SK-MEL-28 melanoma
[4] = test system: UACC-62 melanoma
[5] = test system: RPMI-8226 leukemia
[6] = test system: SF-268 CNS
[7] = test system: NCI-H522 lung
[8] = test system: MALME-3M melanoma
[9] = test system: HL-60(TB) leukemia
[10] = test system: DU-145 prostate
[11] = test system: SK-MEL-5 melanoma
[12] = test system: SN12C renal
[13] = test system: KM12 colon
[14] = test system: HCT-15 colon
[15] = test system: NCI-H460 lung
[16] = test system: OVCAR-3 ovarian
[17] = test system: COLO 205 colon
[18] = test system: OVCAR-5 ovarian
[19] = test system: T-47D breast
[20] = test system: MOLT-4 leukemia
[21] = test system: TK-10 renal
[22] = test system: LOX IMVI melanoma
[23] = test system: SR leukemia
[24] = test system: SNB-19 CNS
[25] = test system: NCI-H226 lung
[26] = test system: A498 renal
[27] = test system: UACC-257 melanoma
[28] = test system: K-562 leukemia
[29] = test system: BT-549 breast

Q: CSCCC(NC(=O)CNC(=O)C(CC(=O)O)NC(=O)C(NC(=O)C(NC(=O)C(NC(=O)CNC(=O)C(CCC(N)=O)NC(=O)C(CCSC)NC(=O)C(CC(=O)O)NC(=O)C(C)NC(=O)C(C)NC(=O)C(NC(=O)C(CO)NC(=O)C(N)CC(C)C)C(C)O)C(C)C)C(C)C)C(C)O)C(=O)NC(C)C(=O)NC(CO)C(=O)NCC(=O)NC(CC(C)C)C(=O)NC(CC(=O)O)C(=O)NC(CCCCN)C(=O)NC(CC(=O)O)C(=O)NC(Cc1ccc(O)cc1)C(=O)NC(CC(C)C)C(=O)NC(CCCCN)C(=O)N1CCCC1C(=O)NC(CC(=O)O)C(=O)NC(CC(=O)O)C(=O)O (configuration not stated) was tested. Which GI50 [1] did it give?
A: The GI50 was greater than 82.5 µM.

Q: And the TGI [1]?
A: Its TGI is greater than 82.5 µM.

Q: And the GI50 [2]?
A: The GI50 was greater than 82.5 µM.

Q: And the TGI [2]?
A: The TGI was greater than 82.5 µM.

Q: And the GI50 [3]?
A: Its GI50 is greater than 82.5 µM.

Q: What about the TGI [3] of the same compound?
A: Its TGI is greater than 82.5 µM.

Q: What about the GI50 [4] of the same compound?
A: Its GI50 is greater than 82.5 µM.

Q: What about the TGI [4] of the same compound?
A: The TGI was greater than 82.5 µM.

Q: And the GI50 [5]?
A: Its GI50 is greater than 82.5 µM.

Q: What about the TGI [5] of the same compound?
A: Its TGI is greater than 82.5 µM.

Q: What about the GI50 [6] of the same compound?
A: Its GI50 is greater than 82.5 µM.

Q: What about the TGI [6] of the same compound?
A: The TGI was greater than 82.5 µM.

Q: And the GI50 [7]?
A: The GI50 was greater than 82.5 µM.

Q: What about the TGI [7] of the same compound?
A: Its TGI is greater than 82.5 µM.

Q: And the GI50 [8]?
A: The GI50 was greater than 82.5 µM.

Q: And the TGI [8]?
A: The TGI was greater than 82.5 µM.

Q: What about the GI50 [9] of the same compound?
A: The GI50 was greater than 82.5 µM.

Q: What about the TGI [9] of the same compound?
A: The TGI was greater than 82.5 µM.

Q: And the GI50 [10]?
A: The GI50 was greater than 82.5 µM.

Q: What about the TGI [10] of the same compound?
A: Its TGI is greater than 82.5 µM.

Q: And the GI50 [11]?
A: Its GI50 is greater than 82.5 µM.

Q: What about the TGI [11] of the same compound?
A: The TGI was greater than 82.5 µM.

Q: And the GI50 [12]?
A: The GI50 was greater than 82.5 µM.

Q: What about the TGI [12] of the same compound?
A: The TGI was greater than 82.5 µM.

Q: And the GI50 [13]?
A: The GI50 was greater than 82.5 µM.

Q: And the TGI [13]?
A: The TGI was greater than 82.5 µM.

Q: What about the GI50 [14] of the same compound?
A: The GI50 was greater than 82.5 µM.

Q: What about the TGI [14] of the same compound?
A: Its TGI is greater than 82.5 µM.

Q: And the GI50 [15]?
A: The GI50 was greater than 82.5 µM.

Q: And the TGI [15]?
A: The TGI was greater than 82.5 µM.

Q: And the GI50 [16]?
A: The GI50 was greater than 82.5 µM.

Q: What about the TGI [16] of the same compound?
A: The TGI was greater than 82.5 µM.

Q: What about the GI50 [17] of the same compound?
A: Its GI50 is greater than 82.5 µM.

Q: And the TGI [17]?
A: The TGI was greater than 82.5 µM.

Q: What about the GI50 [18] of the same compound?
A: Its GI50 is greater than 82.5 µM.

Q: What about the TGI [18] of the same compound?
A: Its TGI is greater than 82.5 µM.

Q: What about the GI50 [19] of the same compound?
A: Its GI50 is greater than 82.5 µM.

Q: And the TGI [19]?
A: Its TGI is greater than 82.5 µM.

Q: And the GI50 [20]?
A: The GI50 was greater than 82.5 µM.

Q: What about the TGI [20] of the same compound?
A: The TGI was greater than 82.5 µM.

Q: And the GI50 [21]?
A: The GI50 was greater than 82.5 µM.

Q: What about the TGI [21] of the same compound?
A: The TGI was greater than 82.5 µM.

Q: And the GI50 [22]?
A: The GI50 was greater than 82.5 µM.

Q: And the TGI [22]?
A: The TGI was greater than 82.5 µM.

Q: What about the GI50 [23] of the same compound?
A: The GI50 was greater than 82.5 µM.

Q: What about the TGI [23] of the same compound?
A: The TGI was greater than 82.5 µM.

Q: What about the GI50 [24] of the same compound?
A: The GI50 was greater than 82.5 µM.

Q: And the TGI [24]?
A: Its TGI is greater than 82.5 µM.

Q: What about the GI50 [25] of the same compound?
A: The GI50 was greater than 82.5 µM.

Q: What about the TGI [25] of the same compound?
A: The TGI was greater than 82.5 µM.

Q: What about the GI50 [26] of the same compound?
A: The GI50 was greater than 82.5 µM.

Q: And the TGI [26]?
A: The TGI was greater than 82.5 µM.

Q: And the GI50 [27]?
A: Its GI50 is greater than 82.5 µM.

Q: And the TGI [27]?
A: Its TGI is greater than 82.5 µM.

Q: And the GI50 [28]?
A: Its GI50 is greater than 82.5 µM.

Q: And the TGI [28]?
A: The TGI was greater than 82.5 µM.

Q: And the GI50 [29]?
A: The GI50 was greater than 82.5 µM.
